We go through one compound from US20030003491A1, “Method for detecting or quantifying environmental hormones” (priority 2000, published 2003).

The assay relates to LH receptor (LH-R) mRNA expression in rat granulosa cells. As to the kind of experiment: Microassay for dioxins using FSH-induced LH-R mRNA expression in rat granulosa cells (Northern blotting, densitometry). Type of assay: cell-based. Conditions: for amount of LH-R mRNA expressed relative to that without TCDD addition: normalised to GAPDH mRNA, N=3. The method, then: Rat granulosa cells were obtained from a juvenile female Wistar rat (purchased from Charles River Laboratories, Inc.) which had been injected with 2 mg of diethylstilbestrol (produced by Sigma Chemical Co.) dissolved in 0.1 ml of sesame oil once per day for 4 days. Specifically, the ovary of the juvenile female Wistar rat was removed and a hole was made in its follicle with a 25-gauge needle to take out granulosa cells. During this series of operations, the rat was treated according to the NIH guidelines (Biosafety in microbiological and biomedical laboratories). Then, the obtained granulosa cells were washed and centrifuged to collect them. The viability of the cells was determined by the known trypan blue exclusion method.
The obtained granulosa cells (viability: over 90%) were cultured in Ham's F-12/DME (1:1 vol/vol) (produced by Gibco Laboratories) containing 1.1 g/l NaHCO3, 40 mg/l gentamicin sulfate (produced by Sigma Chemical Co.), 1 mg/l Fungizone (produced by Gibco Laboratories) and 100 mg/l bovine serum albumin (BSA) on a collagen-coated plate in a moist atmosphere (5% CO2, 95% air) at 37° C. [Nakamura, M., et al., Endocrinology, 133, 538-544 (1993)]. The granulosa cells obtained by the culturing were used in Examples.
The rat granulosa cells obtained in Reference Example 1 (5×10^6 living cells) were cultured in 5 ml of a serum-free medium [Ham's F-12/DME (1:1 vol/vol)] on a plate of 60 mm diameter for 24 hours, and the resulting culture was allowed to stand separately in the presence of 30 ng/ml rat FSH (I-8) [obtained from National Hormone and Pituitary Distribution Program (Bethesda Md.)] and in the presence of FSH (30 ng/ml) and 2,3,7,8-tetrachlorodibenzop-dioxin (TCDD) [Sigma Chemical Co.] (1, 10 and 100 pmol/l). TCDD was used after being dissolved in dimethyl sulfoxide.
After culturing was stopped 24, 48 and 72 hours later, RNAs formed in the cells were extracted to obtain pellets of the RNA mixture according to the AGTC method [trade name: Isogen, produced by Nippon Gene Co., Ltd., Chomezynski, P. and Sacchi, N., Anal. Biochem., 162, 156-159 (1987)]. To inhibit RNase, 15 μg of the obtained pellets was dissolved in diethyl-pyrocarbonate-treated water. The resulting solution was subjected to denatured agarose gel electrophoresis and the RNAs were transferred to a nylon membrane (trade name: Biodyne, produced by ICN) to carry out Northern blotting analysis. A film (trade name: Kodak X-Omat, produced by Eastman Kodak Co.) was exposed to the nylon membrane according to the standard manual of a nucleic acid detection kit (produced by Boehringer Mannheim) for fluorescence detection using 2202 UnitroScan Laser Densitometer (produced by LKB Co., Ltd.) to determine the mRNAs.
Rat LH-R mRNA was prepared according to the description in Mol. Cell. Endocrinol., 82, 259-263 (1991). The obtained rat […] into the EcoRI site of Bluescript ks (+) vector, followed by subcloning and linearization with BglII [Nakamura, K., Nakamura, M., Igarashi, S., Miyamoto, K., Eto, Y., Ibuki, Y., and Minegishi, T., Endocrinology, 134, 2329-2335 (1994)]. Then, digoxigenin-labeled LH-R cRNA corresponding to nucleotide numbers 440 to 2560 of the rat LH-R mRNA was prepared by in vitro transcription using T3 RNA polymerase and an RNA-labeling kit.
Each of the rat LH-R mRNAs (5.4 kb) obtained in the above (1) was determined according to the luminescence intensity method. The luminescence intensity was measured with LKB 2202 UnitroScan Laser Densitometer (produced by LKB Co., Ltd.) using the probe prepared in the above (2).
The amount of each rat LH-R mRNA expressed was determined using the amount of GAPDH (glyceraldehyde 3-phosphate dehydrogenase) mRNA expressed as a reference value to obtain the relative value (%) based on the control [addition of only FSH (30 ng/ml)]. The data were expressed in terms of […] of the values obtained by carrying out culturing three times under the same conditions. […]

As for `Clc1cc2c(cc1Cl)Oc1cc(Cl)c(Cl)cc1O2` [TCDD, 2,3,7,8-tetrachlorodibenzop-dioxin], the “expression of LH-R mRNA (Northern blotting)” value runs as follows: (1 pmol/l TCDD plus FSH 30 ng/ml, 48 hours) “a little decrease”; (10 pmol/l TCDD plus FSH 30 ng/ml, 48 hours) “clearly inhibited”. Moreover, under “10 pmol/l TCDD plus FSH 30 ng/ml, after 24 hours of standing”, the “amount of expressed LH-R mRNA versus FSH alone (Northern blotting)” value is listed as “difference in the amount of expressed LH-R mRNA already appeared”. Besides, the “amount of LH-R mRNA expressed relative to that without TCDD addition” value reads like this: (10 pmol/l TCDD plus FSH 30 ng/ml, after 24 hours) “less than 50%”; (10 pmol/l TCDD plus FSH 30 ng/ml, after 48 hours) “less than 50%”; (10 pmol/l TCDD plus FSH 30 ng/ml, after 72 hours) “less than 50%”. Moreover, the “concentration dependency of LH-R mRNA expression (densitometer)” value (1, 10, 100 pmol/l TCDD plus FSH 30 ng/ml, 48 hours) is given as “decreased in a manner dependent upon the amount of TCDD added”.
